Patent US20210309686A1, “QUATERNARY AMMONIUM SALTS OF NICOTINIC ACID AND NICOTINAMIDE MONONUCLOETIDES AND RIBOSIDES AS ANTI-AGING AGENTS” (Jumpstart Fertility Pty Ltd, priority 2018, published 2021)

What follows are compounds tested on COV434 cells (assay: NAD Cell Assays (NAD cycling method)). Conditions: COV434 cells treated at 200 uM for 4 hr; NAD normalized to protein; salt compared mole per mole with its parent counterpart.
Format: cell-based
Protocol: NAD levels were assayed based on the NAD cycling method of Zhu and Rand, PLoS One (2012), herein incorporated by reference. COV434 cells were maintained in 6 well plates and treated with the indicated compounds at a concentration of 200 uM for 4 hr. Media was removed, plates were washed in cold PBS and cells were scraped down in NAD extraction buffer containing 10 mM nicotinamide, 50 mM Tris HCl, 0.1% Triton X-100. Cells were homogenized by sonication for 5 seconds, and samples were centrifuged at 7,000 g for 5 min at 4 degrees. Aliquots were taken for later protein assay, and samples were then passed through 10 kDa amicon filters at 14,000 g, 30 min at 4 degrees to remove proteins from the sample. Each sample was measured in technical triplicate, with 25 μL sample added to 100 μL ADH cycling mix (0.2 mg/ml alcohol dehydrogenase enzyme, 2% ethanol, 100 mM Tris pH 8.5). Samples were allowed to cycle for 10 min at room temperature, followed by 50 μL addition of an MTT/PMS solution (0.1 mM phenazine methosulfate, 0.8 mM 3-(4,5-Dimethylthiazol-2-yl)-2,5-diphenyltetrazolium bromide), 100 mM Tris-HCl pH 8.5). Plates were then incubated for 15 min and absorbance was measured at 570 nm. NAD concentrations were extrapolated from a standard curve, and normalized to protein concentrations determined by BCA protein assay.
The fold increase is obtained through a direct comparison on a mole per mole between the compared salt and its parent counterpart.

Point of comparison: O=C([O-])c1ccc[n+]([C@@H]2O[C@H](COP(=O)(O)O)[C@@H](O)[C@H]2O)c1 [I-003, 1-Carboxy-N,N,N-trimethylmethanaminium 1-((2R,3R,4S,5R)-5-(((hydrogenphosphonato)oxy)methyl)-3,4-dihydroxytetrahydrofuran-2-yl)pyridin-1-ium-3-carboxylate], “Fold Increase of NAD Adjusted by Molecular Weight” value 1.51. Against it:
- O=C([O-])c1ccc[n+]([C@@H]2O[C@H](COP(=O)(O)O)[C@@H](O)[C@H]2O)c1 [I-002, (R)-3-Carboxy-2-hydroxy-N,N,N-trimethylpropan-1-aminium 1-((2R,3R,4S,5R)-5-(((hydrogenphosphonato)oxy)methyl)-3,4-dihydroxytetrahydrofuran-2-yl)pyridin-1-ium-3-carboxylate] — lower, 1.47
- NC(=O)c1ccc[n+]([C@@H]2O[C@H](COP(=O)([O-])O)[C@@H](O)[C@H]2O)c1 [I-005, 1-Carboxy-N,N,N-trimethylmethanaminium ((2R,3S,4R,5R)-5-(3-carbamoylpyridin-1-ium-1-yl)-3,4-dihydroxytetrahydrofuran-2-yl)methyl phosphate] — lower, 1.35
- O=C([O-])c1ccc[n+]([C@@H]2O[C@H](COP(=O)(O)O)[C@@H](O)[C@H]2O)c1 [I-006, (R)-3-Carboxy-2-hydroxy-N,N,N-trimethylpropan-1-aminium 1-((2R,3R,4S,5R)-3,4-dihydroxy-5-((phosphonatooxy)methyl)tetrahydrofuran-2-yl)pyridin-1-ium-3-carboxylate] — higher, 1.64
- O=C([O-])c1ccc[n+]([C@@H]2O[C@H](COP(=O)(O)O)[C@@H](O)[C@H]2O)c1 [I-007, 1-Carboxy-N,N,N-trimethylmethanaminium 1-((2R,3R,4S,5R)-3,4-dihydroxy-5-((phosphonatooxy)methyl)tetrahydrofuran-2-yl)pyridin-1-ium-3-carboxylate] — higher, 1.92
